BindingDB's records for patent US12110299 (Yungjin Pharm., 2024)

Biological target: Cyclin-dependent kinase 7 (Homo sapiens, UniProt P50613)
Assay: CDK7 Kinase Activity Assay
Method: Representative compounds of the present invention were assayed in vitro for CDK7 kinase-inhibitory activities using ADP-Glo platform. In detail, CDK7 kinase-inhibitory activity was measured using recombinant purified human CDK7 kinase (ThermoFisher, PV3868) and ADP Glo kinase assays kit (Promega, V9102). CDK7 kinase was diluted with 1× kinase reaction buffer (40 mM Tris-C1, pH 7.5, 20 mM MgCl2, 0.1 mg/ml BSA and 50 [M DTT) and added to 96 well plates (final concentration of CDK7 per reaction: 50 ng). The compound was finally treated to be a 1% DMSO aqueous solution, and a substrate cocktail containing ATP (final concentration of 90 [M) and 0.2 μg/μl of MBP (Myelin basic protein) in a total of 25 μl of reaction mass was added to 96 well plates, thereby initiating an enzymatic reaction. After 2 hours of incubation (30° C.), equivalent volume (25 μl per reaction) of ADP Glo was added and incubated (30° C.) at room temperature for 60 minutes. […] The kinase activity was measured by chemiluminescence method according to ADP Glo Kanease Assay Kit instruction manual, and the CDK7-inhibitory activity of the compounds according to the present invention was calculated. The result analysis of each compound was performed using Microsoft Excel, and IC50 values were calculated by Prism software.

Cyclin-dependent kinase 7, sequence (P50613 whole entry): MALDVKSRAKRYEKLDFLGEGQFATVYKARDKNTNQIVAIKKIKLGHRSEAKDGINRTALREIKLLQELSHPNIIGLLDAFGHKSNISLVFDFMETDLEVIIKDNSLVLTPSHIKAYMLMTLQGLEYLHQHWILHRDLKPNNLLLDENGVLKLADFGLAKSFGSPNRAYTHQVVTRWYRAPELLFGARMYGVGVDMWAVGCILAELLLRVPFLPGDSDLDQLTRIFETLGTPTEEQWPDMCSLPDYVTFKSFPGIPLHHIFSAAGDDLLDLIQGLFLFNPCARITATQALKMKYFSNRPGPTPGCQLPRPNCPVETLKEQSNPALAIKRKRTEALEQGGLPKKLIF

- IC50: 14 nM
Compound: C[C@H](C(=O)Nc1ncc(Cl)s1)c1cccc(-c2cnc(NC(=O)/C=C/CN3CC4CC3CO4)cn2)c1 (stereo partly specified) [US12110299, Example 94]
